Type in all cases: functional, cell-based
Assay [1] is described as follows: Cytotoxicity against mouse EAC. The following applies: Ehrlich.
Another assay concerns Splenocyte. Briefly: Inhibition of calcium influx in mouse splenocytes.
The subject of a further assay is Ehrlich. Description: Induction of apoptosis in mouse EAC assessed as early apoptotic cell by Hoechst and PI staining.

For three compounds, IC50 and EC50 results are on record in ChEMBL document CHEMBL1151271, “Phrygiasterol, a cytotoxic cyclopropane-containing polyhydroxysteroid, and related compounds from the pacific starfish Hippasteria phrygiana” (J Nat Prod, 2005).

Values after ≈ are worked out from the molar mass of the structure shown.

As usually defined, the IC50 is the concentration that gives 50% inhibition. Low values mean higher potency, high ones lower potency. Compound `C[C@H](CC[C@@H]1C[C@H]1CO)[C@H]1[C@@H](O)[C@H](O)[C@@H]2[C@]1(C)CC[C@@H]1[C@@]3(C)CC[C@H](O)C[C@@H]3[C@@H](O)C[C@]12O` [PHRYGIASTEROL] gave an IC50 in assay [1] of 50 µg/mL (≈ 107 µM).

By EC50 is commonly meant the concentration giving half of the maximal effect. Consider `CO[C@@H]1[C@@H](O)[C@H](O[C@@H](CC[C@@H](C)[C@H]2C[C@H](O)[C@@H]3[C@]2(C)CC[C@@H]2[C@@]4(C)CC[C@H](O)C[C@@H]4[C@@H](O)C[C@]23O)C(C)C)OC[C@H]1OS(=O)(=O)[O-].[Na+]` [PHRYGIOSIDE B], for which the half-maximal effective concentration (EC50) in the assay on Splenocyte came out at 20 µg/mL; in the assay on Ehrlich, 70 µg/mL.

`CO[C@@H]1[C@@H](O)[C@H](O[C@@H](CC[C@@H](C)[C@H]2C[C@H](O)[C@@H]3[C@]2(C)CC[C@@H]2[C@@]4(C)CC[C@H](O)C[C@@H]4[C@@H](O)C[C@]23O)C(C)C)OC[C@H]1O` [BOREALOSIDE C]: the EC50 was 20 µg/mL (≈ 33.4 µM) with Splenocyte and 70 µg/mL (≈ 117 µM) in the assay on Ehrlich.
